Series [1] concerns the target Programmed cell death protein 1/Programmed cell death 1 ligand 1 (Homo sapiens, UniProt Q15116+Q9NZQ7). The series can be described thus: Inhibition of PD-1/PD-L1 (unknown origin) protein-protein interaction incubated for 105 mins by HTRF assay. Type of series: protein-complex assay. (In general: TR-FRET usually uses a lanthanide donor and a delayed reading to cut background.)

The nature of series [2]: Metabolic stability in human liver microsomes assessed as half life. Type of series: ADME, Microsome. A general note: Liver microsomes are vesicles of endoplasmic reticulum, rich in cytochrome P450 enzymes.
In series [3] the test system is T-cell. The series can be described thus: Immunomodulatory activity in concanavalin A stimulated BALB/c mouse T-lymphocyte co-cultured with mouse CT26 cells assessed as T cell proliferation at 20 nM incubated for 48 hrs by flow cytometry (reference value: 64.08 +/- 0.91%). The series is classed as functional.
In series [4] the test system is T-cell. The series can be described thus: Immunomodulatory activity in concanavalin A stimulated BALB/c mouse T-lymphocyte co-cultured with mouse CT26 cells overexpressing PD-L1 assessed as T cell proliferation at 20 nM incubated for 48 hrs by flow cytometry (reference value: 58.47 +/- 2.07%). Type of series: functional. For orientation: In flow cytometry, cells or beads pass a laser one at a time.

The subject of series [5] is T-cell. The series can be described thus: Immunomodulatory activity in concanavalin A stimulated BALB/c mouse T-lymphocyte co-cultured with mouse CT26 cells assessed as increase in T cell proliferation at 5 to 80 nM incubated for 48 hrs by flow cytometry. Type of series: functional, cell-based. As to conditions: dose 5-80 nM.
In series [6] the test system is T-cell. The series can be described thus: Immunomodulatory activity in concanavalin A stimulated BALB/c mouse T-lymphocyte co-cultured with mouse CT26 cells overexpressing PD-L1 assessed as increase in T cell proliferation at 5 to 80 nM incubated for 48 hrs by flow cytometry. The series is classed as functional, cell-based. As to conditions: dose 5-80 nM.
The subject of series [7] is T-cell. Put plainly: Immunomodulatory activity in concanavalin A stimulated BALB/c mouse T-lymphocyte co-cultured with mouse CT26 cells overexpressing PD-L1 assessed as increase in proportion of CD3 positive CD8 positive T cells at 20 nM incubated for 48 hrs by flow cytometry (reference value: 15.01%). Type of series: functional.
For series [8], the system named is T-cell. Put plainly: Immunomodulatory activity in concanavalin A stimulated BALB/c mouse T-lymphocyte co-cultured with mouse CT26 cells overexpressing PD-L1 assessed as increase in proportion of CD3 positive CD8 positive T cells at 80 nM incubated for 48 hrs by flow cytometry (reference value: 14.38%). The series is classed as functional.
The subject of series [9] is T-cell. Put plainly: Immunomodulatory activity in concanavalin A stimulated BALB/c mouse T-lymphocyte co-cultured with mouse CT26 cells overexpressing PD-L1 assessed as increase in proportion of CD3 positive CD69 positive T cells at 20 nM incubated for 48 hrs by flow cytometry (reference value: 39.97%). The series is classed as functional.
Series [10] has as its system T-cell. Put plainly: Immunomodulatory activity in concanavalin A stimulated BALB/c mouse T-lymphocyte co-cultured with mouse CT26 cells overexpressing PD-L1 assessed as increase in proportion of CD3 positive CD69 positive T cells at 80 nM incubated for 48 hrs by flow cytometry (reference value: 41.22%). The series is classed as functional.

Calls of active or inactive are those of the source. No cut-off for these calls is given here.

Sequence of Programmed cell death protein 1/Programmed cell death 1 ligand 1 (Q15116 whole entry): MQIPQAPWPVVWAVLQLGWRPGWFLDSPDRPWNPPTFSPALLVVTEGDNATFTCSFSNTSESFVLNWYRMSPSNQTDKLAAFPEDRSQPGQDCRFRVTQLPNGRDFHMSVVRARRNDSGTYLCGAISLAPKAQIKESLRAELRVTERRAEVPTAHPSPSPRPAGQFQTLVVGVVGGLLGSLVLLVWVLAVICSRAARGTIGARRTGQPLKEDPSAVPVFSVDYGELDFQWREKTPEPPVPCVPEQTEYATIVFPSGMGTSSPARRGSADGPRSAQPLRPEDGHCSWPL
Sequence of Programmed cell death protein 1/Programmed cell death 1 ligand 1 (Q9NZQ7 whole entry): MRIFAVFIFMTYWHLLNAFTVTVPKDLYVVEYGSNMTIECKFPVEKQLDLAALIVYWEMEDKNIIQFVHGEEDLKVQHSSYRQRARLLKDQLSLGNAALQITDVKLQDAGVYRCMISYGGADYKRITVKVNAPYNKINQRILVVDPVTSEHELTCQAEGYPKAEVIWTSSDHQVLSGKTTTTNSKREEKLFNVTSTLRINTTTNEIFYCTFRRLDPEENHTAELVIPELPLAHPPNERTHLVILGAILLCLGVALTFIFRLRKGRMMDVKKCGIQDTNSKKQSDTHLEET

Take `CC(C)(CO)NCc1cnc2c(N3CCc4c(-c5ccccc5)cccc43)nccc2c1`: the IC50 in series [1] was found to be 44.4 nM.

With `OCCNCc1cnc2c(N3CCc4c(-c5ccccc5)cccc43)nccc2c1`, it took 31.7 nM to reach half-maximal inhibition in series [1] (IC50).

Molecule `O=C(c1ncc(CNC2CCOCC2)s1)N1CCc2c(-c3ccc4c(c3)OCCO4)cccc21` had an IC50 in series [1] of 18.9 nM. For the same molecule, the half-life in [2] amounted to 0.373 h. Besides, the figures for the Activity in series [3] and in series [4] were 59.1% and 60.49%, respectively. In addition, the result in series [5] and in series [6] was Active.

In series [1], `CC(C)(CO)NCc1cnc2c(N3CCc4c(-c5ccc6c(c5)OCCO6)cccc43)ncnc2c1` had an IC50 of 14.1 nM.

`c1ccc(-c2cccc3c2CCN3c2ncnc3cc(CNC4CCOCC4)cnc23)cc1` gave an IC50 in [1] of 21.2 nM. The half-life in series [2] was found to be 1.51 h.

`c1ccc(-c2cccc3c2CCN3c2ncnc3cc(CNC4CCOCC4)ccc23)cc1` had an IC50 in series [1] of 108 nM.

As to `CC(=O)NCCNCc1cnc2c(N3CCc4c(-c5ccccc5)cccc43)ncnc2c1`, the IC50 in [1] came to 3.9 nM. Besides, the half-life in series [2] came out at 1.85 h. Moreover, the Activity was 51.57% in [3]; 55.7% in series [4]; 18.56% in series [7]; 22.16% in series [8]; 43.99% in series [9]; 45.07% in series [10]. Also, the outcome in series [5] and in series [6] was Active.

Turning to `CC(=O)NCCNCc1ccc2c(N3CCc4c(-c5ccccc5)cccc43)ncnc2c1`, the IC50 in series [1] was determined as 126 nM.

Molecule `O[C@@H]1CCN(Cc2cnc3c(N4CCc5c(-c6ccccc6)cccc54)ncnc3c2)C1` displayed an IC50 in series [1] of 13.2 nM.

Molecule `OC[C@@H]1CCN(Cc2cnc3c(N4CCc5c(-c6ccccc6)cccc54)ncnc3c2)C1` registered an IC50 in series [1] of 16 nM.

In series [1], `O[C@H]1CCN(Cc2cnc3c(N4CCc5c(-c6ccccc6)cccc54)ncnc3c2)C1` came in with an IC50 of 17.4 nM.

In series [1], `OCCNCc1cnc2c(N3CCc4c(-c5ccccc5)cccc43)ncnc2c1` showed an IC50 of 6.8 nM. Also, the half-life in series [2] was found to be 3.47 h. Moreover, the Activity in series [3] is given as 59.22%; in series [4], 60.06%. In addition, the outcome in [5] and in [6] was Active.

`COCCNCc1cnc2c(N3CCc4c(-c5ccccc5)cccc43)ncnc2c1` came in with an IC50 in [1] of 23.4 nM.

`O=C(O)[C@@H]1CCCCN1Cc1cnc2c(N3CCc4c(-c5ccccc5)cccc43)ncnc2c1`: in series [1], it took 26.6 nM to reach half-maximal inhibition (IC50).

Regarding `O=C(O)[C@@H]1CCCN1Cc1cnc2c(N3CCc4c(-c5ccccc5)cccc43)ncnc2c1`, in series [1], the IC50 came to 8.1 nM. Besides, the Activity in series [3] is given as 64.03%; in series [4] it was 61.9%. Also, the result in series [5] and in series [6] was Active.

Molecule `OCCNCc1ccc2c(N3CCc4c(-c5ccccc5)cccc43)ncnc2c1` returned a half-maximal inhibitory concentration (IC50) in series [1] of 43.4 nM.

For `O=C(O)[C@@H]1CCN(Cc2cnc3c(N4CCc5c(-c6ccccc6)cccc54)nccc3c2)C1`, in [1], half-maximal inhibition (IC50) was put at 67.9 nM.

`OCCNCc1cnc2c(N3CCc4c(-c5ccc6c(c5)OCCO6)cccc43)ncnc2c1` displayed an IC50 in [1] of 7.2 nM. In addition, the results for the Activity in series [3] and in [4] were 61.77% and 59.54%, respectively. In addition, the outcome in series [5] and in series [6] was Active.

The molecule `CC(=O)NCCNCc1cnc2c(N3CCc4c(-c5ccc6c(c5)OCCO6)cccc43)ncnc2c1` showed an IC50 in [1] of 13.8 nM.

`c1ccc(-c2cccc3c2CCN3c2nccc3cc(CNC4CCOCC4)cnc23)cc1` registered an IC50 in [1] of 128 nM.

As for `NS(=O)(=O)NCCNCc1cnc2c(N3CCc4c(-c5ccccc5)cccc43)ncnc2c1`, it took 21.1 nM to reach half-maximal inhibition in [1] (IC50).

`O=C(O)[C@@H]1CCN(Cc2cnc3c(N4CCc5c(-c6ccccc6)cccc54)ncnc3c2)C1` showed an IC50 in series [1] of 8.6 nM. The Activity in series [3] amounted to 43.98%; in series [4], 38.74%. Also, the outcome in series [5] and in [6] was Active.

`COCCNCc1cnc2c(N3CCc4c(-c5ccc6c(c5)OCCO6)cccc43)ncnc2c1`: the IC50 in series [1] was 15.5 nM.

In series [1], `O=C(O)[C@H]1CCN(Cc2cnc3c(N4CCc5c(-c6ccccc6)cccc54)nccc3c2)C1` displayed an IC50 of 80.5 nM.

In turn, `NS(=O)(=O)NCCNCc1cnc2c(N3CCc4c(-c5ccc6c(c5)OCCO6)cccc43)ncnc2c1` yielded an IC50 in series [1] of 31.5 nM.

In [1], `O=C(O)[C@H]1CCCCN1Cc1cnc2c(N3CCc4c(-c5ccccc5)cccc43)ncnc2c1` came in with a 50% inhibitory concentration (IC50) of 62.1 nM.

`CC(=O)NCCNCc1cnc2c(N3CCc4c(-c5ccccc5)cccc43)nccc2c1` showed an IC50 in [1] of 84.5 nM.

Take `O=C(O)[C@H]1CCN(Cc2cnc3c(N4CCc5c(-c6ccccc6)cccc54)ncnc3c2)C1`: in [1], the IC50 was found to be 8.1 nM. In addition, the values for the Activity in [3] and in series [4] were 54.44% and 52.78%, respectively. Also, the result in series [5] and in series [6] was Active.

In series [1], `O=C(O)[C@@H]1CCCN1Cc1cnc2c(N3CCc4c(-c5ccc6c(c5)OCCO6)cccc43)ncnc2c1` returned an IC50 of 15.8 nM.

For `O=C(O)[C@H]1CCCN1Cc1cnc2c(N3CCc4c(-c5ccccc5)cccc43)ncnc2c1`, the IC50 in series [1] amounted to 22.7 nM.

In series [1], `OC[C@H]1CCN(Cc2cnc3c(N4CCc5c(-c6ccccc6)cccc54)ncnc3c2)C1` came in with an IC50 of 21.4 nM.

In general, IC50 refers to the concentration needed to halve the response being measured. Read a low IC50 as higher potency. A word on the half-life: it is the time in which the quantity being followed falls by half.
